Key:
wt COX-2 = target: T1, wt COX-2 (Homo sapiens, UniProt P35354); assay: COX inhibitory enzyme immunoassay (COX-2); assay type: biochemical
T1 construct: purchased Cayman Chemical Co. item no; 560131
T1 sequence (P35354 18-604): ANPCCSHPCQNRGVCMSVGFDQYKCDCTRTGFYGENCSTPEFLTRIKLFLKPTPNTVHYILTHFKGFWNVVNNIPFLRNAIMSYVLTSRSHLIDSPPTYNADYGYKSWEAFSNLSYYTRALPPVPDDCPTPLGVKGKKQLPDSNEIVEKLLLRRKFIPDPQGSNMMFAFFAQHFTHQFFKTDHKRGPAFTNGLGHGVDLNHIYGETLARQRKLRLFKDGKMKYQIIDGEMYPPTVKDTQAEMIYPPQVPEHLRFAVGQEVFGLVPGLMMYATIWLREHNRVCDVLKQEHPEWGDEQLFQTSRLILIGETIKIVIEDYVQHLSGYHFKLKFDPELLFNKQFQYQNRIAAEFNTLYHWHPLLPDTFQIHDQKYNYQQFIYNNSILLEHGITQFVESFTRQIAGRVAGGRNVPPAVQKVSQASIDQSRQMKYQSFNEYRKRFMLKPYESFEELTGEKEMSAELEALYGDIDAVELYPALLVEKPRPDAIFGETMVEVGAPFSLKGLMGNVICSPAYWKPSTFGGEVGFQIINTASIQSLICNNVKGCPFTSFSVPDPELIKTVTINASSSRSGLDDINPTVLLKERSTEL
Method: (§1) All the compounds of Fig. 9 were screened for COX-1/2 inhibitory activity in triplicate at 10^–4–10^–8 M concentration by performing enzyme immunoassays. The activity of the compounds was quantified in terms of amount of prostaglandins produced by the enzymes in the presence of different concentrations of the compound.
(§2) For studying the COX-1, COX-2 inhibitory activities of the compounds, various reagents were prepared as per the protocol of the assays. The compounds were screened in triplicate at 10^–4–10^–8 M concentration using the procedure as described in the previous report.

COX-1 = target: T2, COX-1 (Ovis aries, UniProt P05979); assay: COX inhibitory enzyme immunoassay (COX-1); assay type: biochemical
T2 construct: purchased Cayman Chemical Co. item no; 560131
T2 sequence (P05979 25-600): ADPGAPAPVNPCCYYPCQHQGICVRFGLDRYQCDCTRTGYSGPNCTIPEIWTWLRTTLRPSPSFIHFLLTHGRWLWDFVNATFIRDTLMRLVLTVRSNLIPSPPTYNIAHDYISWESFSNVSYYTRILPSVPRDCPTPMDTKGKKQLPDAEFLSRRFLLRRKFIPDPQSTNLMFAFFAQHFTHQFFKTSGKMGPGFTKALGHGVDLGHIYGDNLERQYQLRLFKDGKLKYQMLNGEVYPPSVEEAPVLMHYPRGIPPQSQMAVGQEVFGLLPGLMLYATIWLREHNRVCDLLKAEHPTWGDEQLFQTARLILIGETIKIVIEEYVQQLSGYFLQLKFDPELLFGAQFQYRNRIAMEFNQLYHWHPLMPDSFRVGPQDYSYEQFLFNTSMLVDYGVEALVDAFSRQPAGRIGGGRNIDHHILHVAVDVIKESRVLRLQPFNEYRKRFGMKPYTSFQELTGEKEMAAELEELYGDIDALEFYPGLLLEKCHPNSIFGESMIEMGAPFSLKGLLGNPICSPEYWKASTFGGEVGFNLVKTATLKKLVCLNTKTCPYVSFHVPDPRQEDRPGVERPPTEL
Method: as §1, §2

## O=C1NC(=O)C(=Cc2cn(CCCCCCn3c4ccccc4c(=O)c4ccccc43)c3ccccc23)C(=O)N1 [Compound 1]
Wt COX-2; enzyme immunoassay, screened at 10^–4–10^–8 M, average of 3 experiments, SD ± 0.5 µM
  IC50: 0.06 µM
Wt COX-2; selectivity index COX-1/COX-2
  SI (IC50(COX-1)/IC50 (COX-2): 1,000
COX-1
  IC50: 60 µM

Source: publication PMC7329864, “Role of water in cyclooxygenase catalysis and design of anti-inflammatory agents targeting two sites of the enzyme” (Scientific Reports, 2020)
